From patent US20250230226A1, “PLXDC1/PLXDC2 ACTIVATORS AND THEIR USE IN THE TREATMENT OF BLOOD VESSEL DISORDERS” (THE REGENTS OF THE UNIVERSITY OF CALIFORNIA, priority 2019, published 2025)

Assays:
[1] = system: CT26.CL25 colon cancer tumor endothelial cells; assay: Colon CT26 ex vivo model of tumor angiogenesis; type: cell-based, mouse; settings: for 48 hrs (morphology observations after 48 hours): Conc. 40 μm; for cytotoxicity at 40 µM: Mus musculus, Endothelial cell, 48 h, read-out: Cell death
How it was run: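 Cell death was read by FDA (live, green) and PI (dead, red) fluorescence imaging, e.g. 48 h after treatment. Treatment began once endothelial cells had grown out of Matrigel-embedded CT26 colon tumor fragments, typically after 7 days of culture in endothelial growth medium at 37 °C.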

[2] = system: LL/2 lung cancer tumor endothelial cells; assay: Lung LL2 ex vivo model of tumor angiogenesis; type: cell-based, mouse; settings: for 48 hrs (morphology observations): LL/2 tumor endothelial cells; for cytotoxicity at 40 µM: Mus musculus, Endothelial cell, 48 h, read-out: Cell death; for Cell death: drug treatment for two days, ratio of red area to total endothelial cell area
How it was run: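 Live/dead imaging with FDA and PI, taken e.g. 48 h post-drug under fixed channel settings, measures treatment effects on endothelial cells sprouting from Lewis lung tumor explants. Explants were seeded in Matrigel drops and grown ~4 days in endothelial growth medium, 37 °C, 5% CO2, before dosing.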

Structure (SMILES)	48 hrs (morphology observations after 48 hours) [1]	cytotoxicity at 40 µM [1] [%]	48 hrs (morphology observations) ([2]; 40 μm)	cytotoxicity at 40 µM [2] [%]	Cell death ([2]; 40 μm) [%]	48 hrs (morphology observations) ([2]; 20 μm)	Cell death ([2]; 20 μm) [%]
CCCCN(CCCC)c1c(S(=O)(=O)c2ccc(OC)cc2)cnc2ccc(C(=O)OCC)cc12 [Compound 155]	*** (100% of endothelial cells vesicularize in cell shape)	20	*** (more than 50% but less than 100% of endothelial cells vesicularize in cell shape)	80	–	–	–
CCOC(=O)c1ccc2ncc(S(=O)(=O)c3ccc(OC)cc3)c(N(CCO)CCO)c2c1 [Compound 156]	0	0	–	30	–	–	–
CCCCOc1ccc(S(=O)(=O)c2cnc3ccc(C(=O)OCC)cc3c2N2CCC(N3CCCCC3)CC2)cc1 [Compound 157]	**** (100% of endothelial cells vesicularize in cell shape and look flattened in morphology (indicating disintegration of the cell body))	60	*** (more than 50% but less than 100% of endothelial cells vesicularize in cell shape)	–	100	–	–
CCCCOc1ccc(S(=O)(=O)c2cnc3ccc(C(=O)OCC)cc3c2N2CCCN(C)CC2)cc1 [Compound 158]	**** (100% of endothelial cells vesicularize in cell shape and look flattened in morphology (indicating disintegration of the cell body))	100	**** (100% of endothelial cells vesicularize in cell shape and look flattened in morphology (indicating disintegration of the cell body))	100	–	–	–
CCCCOc1ccc(S(=O)(=O)c2cnc3ccc(SC)cc3c2N2CCC(N3CCCCC3)CC2)cc1 [Compound 159]	**** (100% of endothelial cells vesicularize in cell shape and look flattened in morphology (indicating disintegration of the cell body))	100	**** (100% of endothelial cells vesicularize in cell shape and look flattened in morphology (indicating disintegration of the cell body))	100	–	–	–
CCCCOc1ccc(S(=O)(=O)c2cnc3ccc(SC)cc3c2N2CCCN(C)CC2)cc1 [Compound 160]	**** (100% of endothelial cells vesicularize in cell shape and look flattened in morphology (indicating disintegration of the cell body))	100	**** (100% of endothelial cells vesicularize in cell shape and look flattened in morphology (indicating disintegration of the cell body))	100	–	–	–
CCCCOc1ccc(S(=O)(=O)c2cnc3ccc(C(=O)OCC)cc3c2N2CCC(N3CCC(O)CC3)CC2)cc1 [Compound 161]	**** (100% of endothelial cells vesicularize in cell shape and look flattened in morphology (indicating disintegration of the cell body))	100	**** (100% of endothelial cells vesicularize in cell shape and look flattened in morphology (indicating disintegration of the cell body))	–	90	–	–
CCCCOc1ccc(S(=O)(=O)c2cnc3ccc(SC)cc3c2N2CCC(N3CCC(O)CC3)CC2)cc1 [Compound 162]	*** (100% of endothelial cells vesicularize in cell shape)	–	*** (more than 50% but less than 100% of endothelial cells vesicularize in cell shape)	–	70	–	–
CCCCOc1ccc(S(=O)(=O)c2cnc3ccc([S+](C)[O-])cc3c2N2CCCN(C)CC2)cc1 (stereo not shown) [Compound 163]	**** (100% of endothelial cells vesicularize in cell shape and look flattened in morphology (indicating disintegration of the cell body))	100	**** (100% of endothelial cells vesicularize in cell shape and look flattened in morphology (indicating disintegration of the cell body))	–	95	–	–
CCCCOc1ccc(S(=O)(=O)c2cnc3ccc(S(C)(=O)=O)cc3c2N2CCCN(C)CC2)cc1 [Compound 164]	**** (100% of endothelial cells vesicularize in cell shape and look flattened in morphology (indicating disintegration of the cell body))	100	**** (100% of endothelial cells vesicularize in cell shape and look flattened in morphology (indicating disintegration of the cell body))	–	95	–	–
CCN(CC)C(=O)c1ccc2ncc(S(=O)(=O)c3ccc(OC)cc3)c(N3CCCN(C)CC3)c2c1 [Compound 165]	0	10	* (50% or less of cells vesicularize in cell shape)	10	–	–	–
CCN(CC)CCNC(=O)c1ccc2ncc(S(=O)(=O)c3ccc(OC)cc3)c(N3CCCN(C)CC3)c2c1 [Compound 166]	*** (100% of endothelial cells vesicularize in cell shape)	60	0	–	10	–	–
CCCCOc1ccc(S(=O)(=O)c2cnc3ccc(C(=O)OCC)cc3c2N2CCSCC2)cc1 [Compound 191]	0	10	–	–	30	–	–
CCCCOc1ccc(S(=O)(=O)c2cnc3ccc(C(=O)NC(C)C)cc3c2N2CCCN(C)CC2)cc1 [Compound 192]	0	10	*** (more than 50% but less than 100% of endothelial cells vesicularize in cell shape)	–	60	–	–
CCCCOc1ccc(S(=O)(=O)c2cnc3ccc(C(=O)N(CC)CC)cc3c2N2CCC(N3CCCCC3)CC2)cc1 [Compound 201]	* (50% or less of cells vesicularize in cell shape)	10	0	–	30	–	–
CCCCOc1ccc(S(=O)(=O)c2cnc3ccc(C(=O)NCCO)cc3c2N2CCC(N3CCCCC3)CC2)cc1 [Compound 202]	0	10	–	30	–	–	–
CCCCOc1ccc(S(=O)(=O)c2cnc3ccc(SC)cc3c2N2CCCN(CCN3CCCCC3)CC2)cc1 [Compound 206]	**** (100% of endothelial cells vesicularize in cell shape and look flattened in morphology (indicating disintegration of the cell body))	100	–	–	–	0	30
CCCCOc1ccc(S(=O)(=O)c2cnc3ccc([S+](C)[O-])cc3c2N2CCC(N3CCCC(O)C3)CC2)cc1 (stereo not shown) [Compound 208]	0	20	–	–	50	–	–
CCCCOc1ccc(S(=O)(=O)c2cnc3ccc([S+](C)[O-])cc3c2N2CCCN(CCN3CCCCC3)CC2)cc1 (stereo not shown) [Compound 209]	*** (100% of endothelial cells vesicularize in cell shape)	90	* (50% or less of cells vesicularize in cell shape)	–	60	–	–
CCCCOc1ccc(S(=O)(=O)c2cnc3ccc([S+](C)[O-])cc3c2N2CCCN(CCN3CCCC3)CC2)cc1 (stereo not shown) [Compound 210]	*** (100% of endothelial cells vesicularize in cell shape)	70	0	–	50	–	–
CCCCOc1ccc(S(=O)(=O)c2cnc3ccc(C(=O)OCC)cc3c2N2CCC(N3CCCN(C)CC3)CC2)cc1 [Compound 211]	**** (100% of endothelial cells vesicularize in cell shape and look flattened in morphology (indicating disintegration of the cell body))	100	**** (100% of endothelial cells vesicularize in cell shape and look flattened in morphology (indicating disintegration of the cell body))	100	–	–	–
CCCCOc1ccc(S(=O)(=O)c2cnc3ccc(C(=O)OCC)cc3c2N2CCC(N3CCOCC3)CC2)cc1 [Compound 212]	0	10	–	–	50	–	–
CCCCOc1ccc(S(=O)(=O)c2cnc3ccc(C(=O)OCC)cc3c2N2CCC(N3CCN(CCO)CC3)CC2)cc1 [Compound 214]	**** (100% of endothelial cells vesicularize in cell shape and look flattened in morphology (indicating disintegration of the cell body))	100	**** (100% of endothelial cells vesicularize in cell shape and look flattened in morphology (indicating disintegration of the cell body))	100	–	–	–
CCCCOc1ccc(S(=O)(=O)c2cnc3ccc(C(=O)OCC)cc3c2N2CCC(N3CCC(c4ccccc4)CC3)CC2)cc1 [Compound 215]	0	20	0	30	–	–	–
CCCCOc1ccc(S(=O)(=O)c2cnc3ccc(C(=O)OCC)cc3c2N2CCC(N3CCC(N4CCCCC4)CC3)CC2)cc1 [Compound 216]	**** (100% of endothelial cells vesicularize in cell shape and look flattened in morphology (indicating disintegration of the cell body))	100	**** (100% of endothelial cells vesicularize in cell shape and look flattened in morphology (indicating disintegration of the cell body))	100	–	–	–
